Measurements as given in article PMC5602538, “Assessment of the Drug Interaction Potential of Unconjugated and GalNAc3-Conjugated 2′-MOE-ASOs” (Molecular Therapy. Nucleic Acids, 2017).

Experiments:
[1] = tested on: BCRP; conditions: Ko143 1 μM, 2 μM prazosin
[2] = molecular target: T1, CYP2C8 (Homo sapiens, UniProt P10632); conditions: hepatocytes
T1 sequence (P10632 1-490): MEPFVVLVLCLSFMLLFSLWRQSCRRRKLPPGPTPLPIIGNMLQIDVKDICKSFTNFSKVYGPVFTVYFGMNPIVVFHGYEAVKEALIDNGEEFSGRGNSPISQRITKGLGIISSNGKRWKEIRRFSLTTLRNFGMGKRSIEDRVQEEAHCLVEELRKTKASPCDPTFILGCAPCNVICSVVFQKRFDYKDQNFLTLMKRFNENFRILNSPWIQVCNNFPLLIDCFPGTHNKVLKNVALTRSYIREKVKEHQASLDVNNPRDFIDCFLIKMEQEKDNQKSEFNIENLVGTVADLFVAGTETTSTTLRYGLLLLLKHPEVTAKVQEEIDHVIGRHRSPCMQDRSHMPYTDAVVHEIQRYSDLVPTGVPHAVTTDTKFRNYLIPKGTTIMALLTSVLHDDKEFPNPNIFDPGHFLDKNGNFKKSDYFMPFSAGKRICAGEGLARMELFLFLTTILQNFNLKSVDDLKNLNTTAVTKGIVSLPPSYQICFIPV
Description: Preincubations were performed in 50 μL of Williams’ Medium E with 2 mM salicylamide. The salicylamide was included to reduce possible phase II conjugation to the precursor phase I metabolites. […] Human hepatocytes (pooled from 5 donors) were thawed and prepared according to the vendor’s protocol. […] Incubations were carried out at 37°C with 5% CO2. The incubation time was 45 min for phenacetin, diclofenac, dextromethorphan, midazolam, bupropion, chlorzoxazone, and testosterone and 90 min for paclitaxel and (S)-mephenytoin. The reactions were stopped by adding 200 μL of ice-cold acetonitrile (can) with tolbutamide (100 ng/mL) as the internal standard to 100 μL of hepatocyte suspension (1:2, v/v). The 96-well plate was then vortexed at 1,700 rpm for 3 min and centrifuged at 3,500 rpm for 10 min at 20°C. The supernatants were analyzed using liquid chromatography-tandem MS (LC-MS/MS).

[3] = tested on: CYP1A2 mRNA; assay: in vitro; conditions: human
Description: (§1) Upon receipt, sandwich-cultured cryopreserved human hepatocytes (with Matrigel) plated on collagen-coated 24-well plates were inspected under a microscope for general morphology and viability. Fresh culture medium (OptiCulture Hepatocyte Media) was added to each plate that passed the visual inspection. The plates were then placed in an incubator set to 37°C with 5% carbon dioxide (CO2) for overnight acclimation. […] During this time, cells in parallel wells were also treated with 50.0 μM omeprazole (inducer of CYP1A2), 1,000 μM phenobarbital (inducer of CYP2B6), or 10.0 μM rifampicin (inducer of CYP3A4) in triplicate, respectively.
(§2) After collection of the supernatant for catalytic analysis, the remaining cells were washed and lysed with QIAGEN Buffer RLT from the QIAGEN RNeasy Kit. […]
(§3) The activity of each CYP enzyme was measured by comparing the peak area ratio of the corresponding product to the peak area ratio of the internal standard. The fold induction was calculated by dividing the peak area ratio of each individual well from the treatment group by the mean of the peak area ratios obtained from the vehicle control wells. […] The ΔCƬ was calculated as follows: ΔCƬ = CƬ (CYP) − CƬ (GAPDH). […] The ΔΔCƬ was calculated as follows: ΔΔCƬ = Δ CƬ (Treatment) − Δ CƬ (Vehicle). The fold induction of the target CYP was calculated using the following equation: Fold=2^-ΔΔCT.

[4] = tested on: CYP1A2; assay: CYP1A2 enzyme activity induction in plated human hepatocytes; conditions: human, probe phenacetin, 100 μM
Description: as §1
(§4) The plates were then incubated at 37°C with 5% CO2 for 60 min. […] Aliquots of the supernatants were analyzed by LC-MS/MS for the formation of acetaminophen, hydroxyl-bupropion, or hydroxyl-midazolam as markers for enzyme activity of CYP1A2, CYP2B6, and CYP3A4, respectively.
as §3, with “The fold induction of the target CYP was calculated using the following equation: Fold=2^-ΔΔCT.” left out

[5] = tested on: CYP2B6; assay: CYP2B6 enzyme activity induction in plated human hepatocytes; conditions: human
Description: as §1, §4
as §3, with “The fold induction of the target CYP was calculated using the following equation: Fold=2^-ΔΔCT.” left out

[6] = tested on: CYP2B6 mRNA; assay: CYP2B6 mRNA induction in plated human hepatocytes; conditions: human
Description: as §1, §2, §3

[7] = tested on: T2, OAT3; assay: OAT3 inhibition study in MDCK cells; assay type: in vitro ADME; conditions: MDCK-II cell monolayer expressing OAT3, probe [3H]-p-aminohippurate; probenecid 100 μM, 10 μM p-aminohippurate; read-out: % inhibition of OAT3-mediated transport of p-aminohippurate, reference inhibitor
T2 construct: expressed in transfected cells; host or cells: MDCK-II
Description: A 96-well cell culture plate containing a monolayer of MDCK-II cells grown on a permeable support and a corresponding receiver tray was used. The basolateral compartment of the culture plate and wells were washed with warm HBSS three times, with wells of the culture plate serving as the apical compartment. The wash was aspirated by adding 150 μL of 37°C HBSS to both compartments. […] The pre-incubation buffer from both compartments was aspirated and 150 μL of the following was added to the basal compartment. […] OATP1B1, 2 μM [^3H]-estradiol-17 β-D-glucuronide; and OATP1B3, 2 μM [^3H]-cholecystokinin octapeptide (CCK-8). […] Plates were incubated at 37°C with orbital shaking at 60 rpm for 5 min. Both sides of the permeable support were washed four times with ice-cold PBS and 60 μL of cell extraction solution was added to each well. Plates were agitated for 15 min at 120 rpm, after which a 30-μL sample of the extract was collected. […] Test article concentrations, including control samples, were evaluated by an LC-MS method. Signal to noise for probe substrates was calculated by dividing the uptake of the probe substrate in transporter-expressing cells by the uptake of probe substrate in control cells not expressing the transporter of interest.

[8] = tested on: T3, OCT1; assay: OCT1 inhibition study in MDCK cells; assay type: in vitro ADME; conditions: MDCK-II cell monolayer expressing OCT1, probe [3H]-MPP+, 2 μM; read-out: % inhibition of OCT1-mediated transport of MPP+, reference inhibitor
T3 construct: expressed in transfected cells; host or cells: MDCK-II
Description: (§5) A 96-well cell culture plate containing a monolayer of MDCK-II cells grown on a permeable support and a corresponding receiver tray was used. The basolateral compartment of the culture plate and wells were washed with warm HBSS three times, with wells of the culture plate serving as the apical compartment. The wash was aspirated by adding 150 μL of 37°C HBSS to both compartments. Plates were incubated at 37°C with orbital shaking at 60 rpm for 15 min for OAT1, OAT3, OCT1, OCT2, OATP1B1, and OATP1B3 (±5 min). The pre-incubation buffer from both compartments was aspirated and 150 μL of the following was added to the basal compartment. […] Test article concentrations, including control samples, were evaluated by an LC-MS method.
(§6) Signal to noise for probe substrates was calculated by dividing the uptake of the probe substrate in transporter-expressing cells by the uptake of probe substrate in control cells not expressing the transporter of interest. Percent inhibition was calculated by dividing the net-transporter-mediated substrate uptake in the presence of the test article or the reference inhibitor by the net-transporter-mediated substrate uptake in the absence of the inhibitor according to the equation: %inhibition=100−(100×(transporter-mediateduptake)withinhibitor/(transporter-mediateduptake)withoutinhibitor).

[9] = tested on: T4, OCT2; assay: OCT2 inhibition study in MDCK cells; assay type: in vitro ADME; conditions: MDCK-II cell monolayer expressing OCT2, probe [14C]-metformin, 10 μM; read-out: % inhibition of OCT2-mediated transport of metformin, reference inhibitor
T4 construct: expressed in transfected cells; host or cells: MDCK-II
Description: as §5, §6

[10] = tested on: T5, OATP1B1; assay: OATP1B1 inhibition study in MDCK cells; assay type: in vitro ADME; conditions: MDCK-II cell monolayer expressing OATP1B1, probe [3H]-estradiol-17β-D-glucuronide; rifampicin 100 μM, 2 μM substrate; read-out: % inhibition of OATP1B1-mediated transport of estradiol-17β-D-glucuronide, reference inhibitor
T5 construct: expressed in transfected cells; host or cells: MDCK-II
Description: as §5, §6

[11] = tested on: T6, OATP1B3; assay: OATP1B3 inhibition study in MDCK cells; assay type: in vitro ADME; conditions: MDCK-II cell monolayer expressing OATP1B3, probe [3H]-cholecystokinin octapeptide (CCK-8); rifampicin 100 μM, 2 μM CCK-8; read-out: % inhibition of OATP1B3-mediated transport of CCK-8, reference inhibitor
T6 construct: expressed in transfected cells; host or cells: MDCK-II
Description: A 96-well cell culture plate containing a monolayer of MDCK-II cells grown on a permeable support and a corresponding receiver tray was used. The basolateral compartment of the culture plate and wells were washed with warm HBSS three times, with wells of the culture plate serving as the apical compartment. The wash was aspirated by adding 150 μL of 37°C HBSS to both compartments. Plates were incubated at 37°C with orbital shaking at 60 rpm for 15 min for OAT1, OAT3, OCT1, OCT2, OATP1B1, and OATP1B3 (±5 min). The pre-incubation buffer from both compartments was aspirated and 150 μL of the following was added to the basal compartment. […] Samples containing probe substrate were added to 200 μL of scintillation fluid and counted on a 1450 Microbeta (PerkinElmer), whereas samples containing the test article were kept frozen. Test article concentrations, including control samples, were evaluated by an LC-MS method.
Signal to noise for probe substrates was calculated by dividing the uptake of the probe substrate in transporter-expressing cells by the uptake of probe substrate in control cells not expressing the transporter of interest. […]

**Q.** `COc1ccc2c3c([nH]c2c1)[C@H](CC(C)C)N1C(=O)[C@H](CCC(=O)OC(C)(C)C)NC(=O)[C@@H]1C3` [Ko143] was tested. Which “% inhibition of BCRP-mediated transport of prazosin, reference inhibitor” value [1] did it give?
**A.** 90.4 ± 1.89%

**Q.** For `Cc1ccc(C)c(OCCCC(C)(C)C(=O)O[C@@H]2O[C@H](C(=O)O)[C@@H](O)[C@H](O)[C@H]2O)c1` [gemfibrozil glucuronide, reference compound], which IC50 [2] is on record?
**A.** 960 nM

**Q.** Which fold induction at 72 h, 50 μM [3] does the source give for `COc1ccc2[nH]c([S+]([O-])Cc3ncc(C)c(OC)c3C)nc2c1` (centres unmarked) [omeprazole, reference compound] here?
**A.** 45.7 ± 4.51

**Q.** What about the fold induction at 72 h, 50 μM [4] of the same compound?
**A.** 50.6 ± 3.78

**Q.** Which results are given for `CCC1(c2ccccc2)C(=O)NC(=O)NC1=O` [phenobarbital, reference compound]?
**A.** fold induction at 72 h, 1000 μM [5]: 5.03 ± 1.06; fold induction at 72 h, 1000 μM [6]: 9.83 ± 0.992

**Q.** With `CCCN(CCC)S(=O)(=O)c1ccc(C(=O)O)cc1` [probenecid, reference compound] as the compound, how does the inhibition at 5 min, 100 μM [7] read?
**A.** ≤ 98.3%

**Q.** With `C=C[C@H]1C[N@@]2CC[C@H]1C[C@@H]2[C@@H](O)c1ccnc2ccc(OC)cc12` [quinidine] as the compound, how does the inhibition at 5 min, 1000 μM [8] read?
**A.** 91.2 ± 1.57%

**Q.** And the inhibition at 5 min, 1000 μM [9]?
**A.** 98.5 ± 1.34%

**Q.** Which results are given for `CO[C@H]1/C=C/O[C@@]2(C)Oc3c(C)c(O)c4c(O)c(c(/C=N/N5CCN(C)CC5)c(O)c4c3C2=O)NC(=O)/C(C)=C\C=C\[C@H](C)[C@H](O)[C@@H](C)[C@@H](O)[C@@H](C)[C@H](OC(C)=O)[C@@H]1C` [rifampicin, reference compound]?
**A.** inhibition at 5 min, 100 μM [10]: 98.8 ± 1.09%; inhibition at 5 min, 100 μM [11]: 99 ± 0.955%
